Measured values published in BindingDB's records for patent US20250388560 (Hitgen, 2025).

These molecules were tested against E3 ubiquitin-protein ligase TRIM21 (UniProt P19474) (assay: Detection of SPR Binding Assays (Surface Plasmon Resonance Binding Assay) of TRIM21 Compounds).
Protocol: The protein fixation buffer, the running buffer A and the running buffer B were prepared and filtered through a […] membrane prior to use. TRIM21 Protein FixationThe running buffer A was used as the protein fixation buffer. The protein fixation buffer and the TRIM21 protein were mixed to prepare a 40.0 µg/mL mixed solution.

Chain of E3 ubiquitin-protein ligase TRIM21 (P19474 whole entry): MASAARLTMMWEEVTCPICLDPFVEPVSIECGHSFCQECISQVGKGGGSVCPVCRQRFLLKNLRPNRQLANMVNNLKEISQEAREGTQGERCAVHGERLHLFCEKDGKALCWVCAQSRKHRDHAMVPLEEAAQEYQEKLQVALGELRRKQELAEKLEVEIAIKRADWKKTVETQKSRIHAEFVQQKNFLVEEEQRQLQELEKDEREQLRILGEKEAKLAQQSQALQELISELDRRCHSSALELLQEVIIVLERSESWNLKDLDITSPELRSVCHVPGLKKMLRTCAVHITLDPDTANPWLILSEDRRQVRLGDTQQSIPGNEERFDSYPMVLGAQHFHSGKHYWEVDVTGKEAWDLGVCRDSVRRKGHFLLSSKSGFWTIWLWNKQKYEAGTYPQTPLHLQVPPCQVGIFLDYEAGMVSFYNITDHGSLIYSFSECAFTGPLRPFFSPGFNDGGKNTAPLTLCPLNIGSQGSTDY

Row | SMILES | Kd [µM]
1 | CSc1ccccc1-c1ccc(C(=O)N(C)CCN2CCOCC2)c(S(C)(=O)=O)c1 [US20250388560, Compound 21] | > 10
2 | CSc1ccccc1-c1ccc(C(=O)N(C)CCN2CCCCC2)c(S(C)(=O)=O)c1 [US20250388560, Compound 22] | > 10
3 | Cc1cccc(-c2ccc(C(=O)N(C)CC3CCCCC3)c(S(C)(=O)=O)c2)c1 [US20250388560, Compound 44] | > 10
4 | CN(CC1CCCCC1)C(=O)c1ccc(-c2cccc3occc23)cc1S(C)(=O)=O [US20250388560, Compound 48] | > 10
5 | CN(CC1CCCCC1)C(=O)c1ccc(-c2cccc3[nH]ccc23)cc1S(C)(=O)=O [US20250388560, Compound 50] | > 10
6 | CN(CC1CCCCC1)C(=O)c1ccc(-c2cccc3cc[nH]c23)cc1S(C)(=O)=O [US20250388560, Compound 51] | > 10
7 | CSc1cc(F)ccc1-c1ccc(C(=O)N(C)CC2CCOCC2)c(S(C)(=O)=O)c1 [US20250388560, Compound 55] | < 0.01
8 | CSc1cc(F)ccc1-c1ccc(C(=O)N(C)Cc2cc[nH]c(=O)c2)c(S(C)(=O)=O)c1 [US20250388560, Compound 56] | < 0.01
9 | COc1cc(F)ccc1-c1ccc(C(=O)N(C)Cc2cc[nH]c(=O)c2)c(S(C)(=O)=O)c1 [US20250388560, Compound 57] | < 0.01
10 | CN(CC1CCCCC1)C(=O)c1ccc(-c2ccccc2)cc1S(C)(=O)=O [US20250388560, Compound 58] | > 10
